From US8481546B2, “CGRP receptor antagonist” (Bristol-Myers Squibb Company, priority 2010, dated 2013)

Legend:
Solution state stability = assay type: physicochemical
Experimental: The solution state stability of Compound I was evaluated as a function of temperature, pH, high intensity light (HIL), buffer concentration, and drug concentration.
Succinate buffer was used for all solutions. For samples exposed to light, a photostability chamber was used in accordance with ICH guidelines (1.2 million lux hour exposure to visible light and 200 watt hour/m^2 to UV). Analyses were performed at 4, 8 and 12 weeks.

[1] = molecular target: T1, CGRP receptor endogenously expressed in SK-N-MC cell membranes (Homo sapiens, UniProt O60894+Q16602); experiment: Competition for [125I]CGRP binding (radioligand competition assay); details: 15 pM [125I]CGRP, read-out: mean Ki, inhibition of [125I]CGRP binding
T1 construct: endogenous in cells; host or cells: SK-N-MC human neuroblastoma cells (membrane homogenate or attached whole cells)
Experimental: SK-N-MC cell membrane homogenate serves as the receptor source. Human neuroblastoma SK-N-MC cells are used for in vitro assays because they endogenously express the CGRP receptor with an identical sequence to the cloned human CGRP receptor (Aiyar et al., 2001). Cells are grown at 37° C. in 5% CO2 in medium consisting of MEM with Earle's salts and L-glutamine supplemented with 10% fetal bovine serum to reach confluence. The cells are harvested by rinsing twice with phosphate-buffered saline and are incubated for 5-10 minutes at 4° C. in hypotonic lysis buffer consisting of 10 mM Tris (pH 7.4) and 5 mM EDTA. The cells are collected and transferred to polypropylene tubes and homogenized using a polytron. Homogenates are centrifuged at 32,000×g for 30 min. The pellets are resuspended in cold hypotonic lysis buffer with 0.1% mammalian protease inhibitor cocktail and assayed for protein concentration. The membrane homogenate is then aliquoted and stored at −80° C. until the day of assay.
The ability of Compound I to compete for the radiolabeled ([^125I]CGRP, Amersham Biosciences) endogenous peptide human alpha CGRP (hαCGRP) is measured using a radioligand competition assay. Compound I is first solubilized in and carried through serial dilutions using 100% DMSO. […] Protein bound radioactivity is measured using a gamma scintillation counter. […]

[2] = molecular target: T2, CGRP receptor, SK-N-MC cell membrane preparation (Homo sapiens, UniProt O60894+Q16602); experiment: Saturation binding of [125I]CGRP with or without Compound I
T2 construct: endogenous in cells; host or cells: SK-N-MC human neuroblastoma cells (membrane homogenate or attached whole cells)
Experimental: The nature of the interaction between the endogenous CGRP peptide and Compound I is studied in detail using saturation binding experiments. Briefly, the binding of [^125I]CGRP to the SK-N-MC cell membrane preparation is measured with increasing concentration of [^125I]CGRP without (control condition) or in the presence of (test conditions) one of the two concentrations (30 pM and 100 pM) of Compound I. Saturation data are analyzed with hyperbolic equations using Kell software (Biosoft, Cambridge, UK) to estimate dissociation constant (Kd) and the maximum number of binding sites (Bmax). The impact of the addition of Compound I to the binding parameters (Kd, Bmax) of [^125I]CGRP is measured and compared.

[3] = molecular target: T3, CGRP receptor in attached whole SK-N-MC cells (Homo sapiens, UniProt O60894+Q16602); experiment: Cellular functional assay, cyclic AMP assay; assay type: cell-based; details: 0.3 nM CGRP
T3 construct: endogenous in cells; host or cells: SK-N-MC human neuroblastoma cells (membrane homogenate or attached whole cells)
Experimental: The CGRP receptor complex is coupled to the Gs class of G proteins. Binding of CGRP to this complex leads to the production of cyclic AMP (adenosine 3′S′-cyclic monophosphate) via Gs-dependent activation of adenylate cyclase.
Functional antagonism by Compound I is determined by measuring its ability to inhibit CGRP-stimulated formation of cyclic AMP in attached whole SK-N-MC cells. SK-N-MC cells are incubated at room temperature with 0.3 nM CGRP alone for 30 minutes, or pre-incubated with various concentrations of Compound I for 15 minutes before the addition of 0.3 nM CGRP and then further incubated for 30 minutes. The Cyclic AMP (cAMP) produced is extracted using the “Lysis Reagent” and its concentration is determined by radioimmunoassay using RPA559 cAMP SPA Direct Screening Assay Kit (Amersham Pharmacia Biotech). IC50 values are defined as the concentration of compound required to inhibit 50% of 0.3 nM CGRP-stimulated cAMP production. Ymax is defined as maximal percent inhibition of 0.3 nM CGRP-stimulated cAMP production.

[4] = Sample A: pH 4, 40 C, 0.1 mg/ml drug, 0.05 M succinate buffer
[5] = Sample B: pH 5, 25 C, 0.1 mg/ml drug, 0.05 M succinate buffer
[6] = Sample C: pH 5, 25 C/light, 0.1 mg/ml drug, 0.05 M succinate buffer
[7] = Sample D: pH 5, 60 C, 0.1 mg/ml drug, 0.05 M succinate buffer
[8] = Sample E: pH 5, 40 C, 0.1 mg/ml drug, 0.05 M succinate buffer
[9] = Sample F: pH 6, 40 C, 0.1 mg/ml drug, 0.05 M succinate buffer
[10] = Sample G: pH 4, 40 C, 40 mg/ml drug, 0.05 M succinate buffer
[11] = Sample H: pH 5, 40 C, 40 mg/ml drug, 0.05 M succinate buffer
[12] = Sample I: pH 6, 40 C, 40 mg/ml drug, 0.05 M succinate buffer
[13] = Sample J: pH 5, 40 C, 0.1 mg/ml drug, 0.01 M succinate buffer
[14] = in the presence of 30 pM Compound I
[15] = in the presence of 100 pM Compound I

Cc1cc(C[C@@H](NC(=O)N2CCC(c3cc4ccccc4[nH]c3=O)CC2)C(=O)N2CCN(C3CCN(C)CC3)CC2)cc2cn[nH]c12 [Compound I, (R)—N-(3-(7-methyl-1H-indazol-5-yl)-1-(4-(1-methylpiperidin-4-yl)piperazin-1-yl)-1-oxopropan-2-yl)-4-(2-oxo-1,2-dihydroquinolin-3-yl)piperidine-1-carboxamide]
Area percent of Deg A at twelve weeks (Solution state stability; [4]): 2.0 area percent
Area percent of Deg C at twelve weeks (Solution state stability; [4]): 10.5 area percent
Area percent of Deg A at twelve weeks (Solution state stability; [5]): .5 area percent
Area percent of Deg B at twelve weeks (Solution state stability; [5]): 0.1 area percent
Area percent of Deg A at twelve weeks (Solution state stability; [6]): 16.9 area percent
Area percent of Deg B at twelve weeks (Solution state stability; [6]): 2.9 area percent
Area percent of Deg C at twelve weeks (Solution state stability; [6]): 2.8 area percent
Area percent of Deg D at twelve weeks (Solution state stability; [6]): 5.2 area percent
Area percent of Deg E at twelve weeks (Solution state stability; [6]): 1.0 area percent
Area percent of Deg F at twelve weeks (Solution state stability; [6]): 7.7 area percent
Area percent of Deg I at twelve weeks (Solution state stability; [6]): 5.7 area percent
Area percent of Deg A at twelve weeks (Solution state stability; [7]): 1.2 area percent
Area percent of Deg C at twelve weeks (Solution state stability; [7]): 55.0 area percent
Area percent of Deg A at twelve weeks (Solution state stability; [8]): 1.9 area percent
Area percent of Deg B at twelve weeks (Solution state stability; [8]): 0.2 area percent
Area percent of Deg E at twelve weeks (Solution state stability; [8]): .1 area percent
Area percent of Deg A at twelve weeks (Solution state stability; [9]): .4 area percent
Area percent of Deg B at twelve weeks (Solution state stability; [9]): 0.1 area percent
Area percent of Deg E at twelve weeks (Solution state stability; [9]): .1 area percent
Area percent of Deg A at twelve weeks (Solution state stability; [10]): 4.9 area percent
Area percent of Deg E at twelve weeks (Solution state stability; [10]): 3.5 area percent
Area percent of Deg G at twelve weeks (Solution state stability; [10]): 0.1 area percent
Area percent of Deg H at twelve weeks (Solution state stability; [10]): .1 area percent
Area percent of Deg J at twelve weeks (Solution state stability; [10]): 0.1 area percent
Area percent of Deg A at twelve weeks (Solution state stability; [11]): 1.2 area percent
Area percent of Deg B at twelve weeks (Solution state stability; [11]): 0.1 area percent
Area percent of Deg E at twelve weeks (Solution state stability; [11]): 0.0 area percent
Area percent of Deg G at twelve weeks (Solution state stability; [11]): 0.1 area percent
Area percent of Deg J at twelve weeks (Solution state stability; [11]): 0.0 area percent
Area percent of Deg A at twelve weeks (Solution state stability; [12]): .2 area percent
Area percent of Deg B at twelve weeks (Solution state stability; [12]): 0.1 area percent
Area percent of Deg C at twelve weeks (Solution state stability; [12]): 0.0 area percent
Area percent of Deg E at twelve weeks (Solution state stability; [12]): 0.0 area percent
Area percent of Deg G at twelve weeks (Solution state stability; [12]): 0.1 area percent
Area percent of Deg J at twelve weeks (Solution state stability; [12]): 0.1 area percent
Area percent of Deg A at twelve weeks (Solution state stability; [13]): 1.1 area percent
Area percent of Deg B at twelve weeks (Solution state stability; [13]): 0.1 area percent
Area percent of Deg E at twelve weeks (Solution state stability; [13]): .1 area percent
Area percent of Deg H at twelve weeks (Solution state stability; [13]): 0.5 area percent
degradation after 12 weeks at 40 C (Solution state stability; condition I in Table 2: pH 6, 40 C, 40 mg/ml drug, 0.05 M buffer): 0.3%
Ki [1]: 22.7 pM
Bmax of [125I]CGRP [2, 14]: 112.1 ± 20.6 fmol/mg protein
Kd of [125I]CGRP [2, 14]: 58.0 ± 19.6 pM
Bmax of [125I]CGRP [2, 15]: 146.8 ± 6.4 fmol/mg protein
Kd of [125I]CGRP [2, 15]: 129.7 ± 31.9 pM
Ymax, maximal percent inhibition of CGRP-stimulated cAMP production [3]: 95.4 (±1.3) %
IC50 ([3]; read-out: IC50, inhibition of CGRP-stimulated cAMP production): 38.6 ± 4.2 pM
